Key:
[1] = tested on: oxaliplatin-induced cold allodynia; assay: Acetone drop test, oxaliplatin-induced cold allodynia, intraperitoneal administration; assay type: in vivo, Sprague Dawley (SD) rats
Method: (§1) Cinnamic acid (trans-cinnamic acid, Wako Pure Chemical Industries, Osaka, Japan) and cinnamaldehyde (Wako Pure Chemical Industries, Osaka, Japan) were dissolved in 10% dimethyl sulfoxide (DMSO, Sigma) (adjusted to pH 7 with 2 M HCl and 5 M NaOH) and 1% Tween 20 (Sigma), respectively. The final volume of 10% DMSO and 1% Tween 20 used in the experiment was […] rat. Cinnamic acid and cinnamaldehyde (10 mg/kg, 20 mg/kg, and 40 mg/kg) (i.p.) at different concentrations were administered to rats with cold allodynia and mechanical allodynia.
(§2) Seven-week-old male Sprague Dawley (SD) rats (180 g to 210 g, 95 rats total, Young Bio, Gyeonggi, Korea) were fed freely with feed and water in cages. The room temperature was maintained at 23±2° C. and a 12 h/12 h contrast cycle was maintained. All procedures described in the present disclosure were approved by the Animal Care and Use Committee of Kyunghee University (KHUASP[SE]-18-153) and followed the guidelines of the International Pain Research Association.
(§3) In order to measure cold allodynia and mechanical allodynia, according to a previous method (Flatters, S J; Bennett, G J Ethosuximide reverses paclitaxel- and vincristine-induced painful peripheral neuropathy. Pain 2004, 109, 150-161), an acetone drop test and a von Frey filament test (up-down method, Linton Instrumentation, Norfolk, UK) were performed, respectively. The rats were trained for one week before the start of the experiment to adapt to the touch and the experimental procedure. The rats were stabilized for 30 min before testing in a clear plastic box (20 cm×20 cm×14 cm) with a wire mesh bottom, while not recognizing the injection of oxaliplatin and other drugs.
Acetone was dripped 5 times on the right hind paw, and the total frequency of licking and shaking of the soles was measured as an average per time.
(§4) For the mechanical allodynia test, paw withdrawal thresholds were measured in the right hind paw using a von Frey filament. Dixon's up-down method and Chaplan's calculation method were used, and a withdrawal threshold of 15 g was measured as a cut-off. In order to confirm the effects of cinnamaldehyde and cinnamic acid at different concentrations over time, the behavioral experiment was performed before injection of cinnamic acid and cinnamaldehyde (time point of 0 min) and at time points of 30 min, 60 min, and 120 min after injection.
(§5) Oxaliplatin (Wako Pure Chemical Industries, Osaka, Japan) was dissolved in a 5% glucose solution at a concentration of 2 mg/mL and injected intraperitoneally at a dose of 6 mg/kg. The same volume of 5% glucose solution (i.p.) was administered to a control.
(§6) All data are expressed as mean±S.E.M. (Standard error of the mean). The data in FIG. 4 was analyzed by a paired t-test (FIGS. 4A and 4B) or an unpaired t-test (FIG. 4C). The data in FIGS. 5 and 6 were expressed as mean±S.E.M. and analyzed by a Bonferroni post-test after one-way ANOVA to evaluate a statistical difference between groups. The data in FIG. 7A were analyzed using Dunnett's multiple comparisons test after two-way ANOVA. The 95% reliability was considered to be statistically significant.

[2] = tested on: oxaliplatin-induced mechanical allodynia; assay: von Frey filament test (up-down method), oxaliplatin-induced mechanical allodynia, intraperitoneal administration; assay type: in vivo, Sprague Dawley (SD) rats
Method: as §1, §2, §3, §4, §5, §6

[3] = tested on: spinal WDR neurons; assay: In vivo extracellular recording of spinal WDR neurons after oxaliplatin; design: species or system Sprague Dawley (SD) rats; conditions: after oxaliplatin 6 mg/kg i.p. vs 5% glucose control (FIGS. 4C to 4F)
Method: as §2
Oxaliplatin (Wako Pure Chemical Industries, Osaka, Japan) was dissolved in a 5% glucose solution at a concentration of 2 mg/mL and injected intraperitoneally at a dose of 6 mg/kg. The same volume of 5% glucose solution (i.p.) was administered to a control. […]
All data are expressed as mean±S.E.M. (Standard error of the mean). The data in FIG. 4 was analyzed by a paired t-test (FIGS. 4A and 4B) or an unpaired t-test (FIG. 4C). The data in FIGS. 5 and 6 were expressed as mean±S.E.M. and analyzed by a Bonferroni post-test after one-way ANOVA to evaluate a statistical difference between groups. The data in FIG. 7A were analyzed using Dunnett's multiple comparisons test after two-way ANOVA. […]

| Structure (SMILES) | effect on oxaliplatin-induced cold allodynia ([1]; all three doses 10, 20 and 40 mg/kg i.p., 30, 60, 120 min after injection (FIG. 5A, FIG. 6)) | effect on oxaliplatin-induced mechanical allodynia ([2]; 10, 20 and 40 mg/kg i.p., 30, 60, 120 min after injection (FIG. 5B, FIG. 6)) | induction of cold allodynia (acetone drop) ([1]; oxaliplatin 6 mg/kg i.p. single injection, day 4, p<0.001 vs before (FIG. 4A)) | induction of mechanical allodynia (von Frey) ([2]; oxaliplatin 6 mg/kg i.p. single injection, day 4, p<0.001 vs before (FIG. 4B)) | number of spike responses of WDR neurons to mechanical (brush, press, pinch) and cold (acetone drop) stimulations [3] |
| --- | --- | --- | --- | --- | --- |
| O=CC=Cc1ccccc1 [cinnamaldehyde, reference compound] | did not have relief effects | did not have relief effects | – | – | – |
| O=C1[O][Pt]2([NH][C@@H]3CCCC[C@H]3[NH]2)[O]C1=O [oxaliplatin, reference compound] | – | – | significantly induced | significantly induced | significantly increased |

Source: patent publication US12285395B2, “Pharmaceutical composition for preventing or treating allodynia caused by anticancer agents” (UNIVERSITY-INDUSTRY COOPERATION GROUP OF KYUNG HEE …, priority 2018, dated 2025)
